Where two headings read alike, the source gives them in different places.
How the values were obtained:
NDM-1 [1] = molecular target: T1, NDM-1 (Klebsiella pneumoniae, UniProt C7C422); test: Enzyme inhibition assay (nitrocefin hydrolysis); type: biochemical
T1 construct: made in house; host or cells: E. coli BL21
Protocol: (§1) According to the methodology of Liu et al. the enzyme and nitrocefin were mixed and incubated at 37°C for 10 min. Consequently, absorbance was measured at 492 nm in a microplate reader. The specific calculation method was obtained from the literature ([Liu et al., 2018b]).

NDM-1 [2] = conditions: ref Chiou et al., 2015; read-out: IC50 for inhibiting NDM-1 in the hydrolysis of imipenem; cited from earlier work
[3] = tested on: bacteria carrying carbapenemases; design: method as in Chiou et al., 2015; conditions: ref Chiou et al., 2015; cited from earlier work
[4] = tested on: E. coli ZC-YN3 (producing NDM-1); test: MIC by broth microdilution / checkerboard; type: cell-based; conditions: Escherichia coli
E. coli ZC-YN3 [5] = test: Time-killing assay; type: cell-based, Escherichia coli; conditions: after 4 hours
[6] = design: method as in Hecker et al., 2020; conditions: rats; ref Hecker et al., 2020; cited from earlier work
E. coli ZC-YN3 [7] = test: Growth curves; type: cell-based, Escherichia coli; conditions: carnosic acid alone, Figure 2A
L65A-NDM-1 [8] = molecular target: T2, L65A-NDM-1 (Klebsiella pneumoniae, UniProt C7C422, L65A); test: Enzyme reaction rate (steady-state kinetics, nitrocefin); type: biochemical, E. coli; conditions: L65A treated with carnosic acid
Protocol: (§2) The principle of the measurement is mainly by using nitrocefin as an indicator, and its color changes from yellow to red with the increase of hydrolysis. NDM-1 (250 ng/ml) was incubated with various concentrations of carnosic acid in phosphate buffered saline, and then 50 μg/m L of nitrocefin was added to the mixture ([Teng et al., 2019]). The reaction rate was determined by continuously measuring the absorbance at OD492 nm at different times ([Krupyanko, 2009]).

F46A-NDM-1 [9] = molecular target: T3, F46A-NDM-1 (Klebsiella pneumoniae, UniProt C7C422, F46A); test: as above; type: biochemical, E. coli; conditions: F46A treated with carnosic acid
Protocol: as §2

T94A-NDM-1 [10] = molecular target: T4, T94A-NDM-1 (Klebsiella pneumoniae, UniProt C7C422, T94A); test: as above; type: biochemical, E. coli; conditions: T94A treated with carnosic acid
Protocol: as §2

WT-NDM-1 [11] = molecular target: T5, WT-NDM-1 (Klebsiella pneumoniae, UniProt C7C422); test: as above; type: biochemical, E. coli; conditions: WT-NDM-1 treated with carnosic acid
T5 construct: made in house; host or cells: E. coli BL21
Protocol: as §2

mice = conditions: acute toxicity study, ref Wang et al., 2012; cited from earlier work
[12] = tested on: F46A-NDM-1, L65A-NDM-1, T94A-NDM-1 mutants; test: Enzyme inhibition assay with NDM-1 mutants; type: biochemical, E. coli; conditions: Figure 5E
Description: The coding sequence of the NDM-1 gene were amplified from genomic DNA of E. coli and digested with BamHI and XhoI. Subsequently, it was cloned into pET28a to generate plasmid pET28a-NDM-1. Plasmids encoding F46A-NDM-1, L65A-NDM-1, and T94A-NDM-1 were constructed using a QuikChange site-directed mutagenesis kit. The ligation product was transformed into competent E. coli DH5α cells. All constructed strains were verified by PCR and DNA sequencing ([Ali et al., 2018]). The NDM-1 primer came from the literature ([Teng et al., 2019]), and the other primers were designed in this experiment.
as §1

L65A-NDM-1 [13] = molecular target: T2, L65A-NDM-1; test: Fluorescence-quenching assay; type: binding, E. coli; conditions: L65A-NDM-1, 300 K
Protocol: (§3) The binding constant (KA) of the binding site of carnosic acid to wild type NDM-1 (WT-NDM-1), F46A-NDM-1, L65A-NDM-1, and T94A-NDM-1 was measured using a fluorescence quenching method. The binding energy was calculated according to the equation: r/Df = nK − rK. This method referred to the previous literature ([Wang J. F. et al., 2015]), using an excitation wavelength of 280 nm and an emission wavelength of 345 nm.

F46A-NDM-1 [14] = molecular target: T3, F46A-NDM-1; test: Fluorescence-quenching assay; type: binding, E. coli; conditions: F46A-NDM-1, 300 K
Protocol: as §3

T94A-NDM-1 [15] = molecular target: T4, T94A-NDM-1; test: Fluorescence-quenching assay; type: binding, E. coli; conditions: T94A-NDM-1, 300 K
Protocol: as §3

WT-NDM-1 [16] = molecular target: T5, WT-NDM-1; test: Fluorescence-quenching assay; type: binding, E. coli; conditions: WT-NDM-1, 300 K
Protocol: as §3

[17] = screening hits, Figure 1A, read-out: IC50 (converted)

T1 sequence (C7C422 29-270, looked up): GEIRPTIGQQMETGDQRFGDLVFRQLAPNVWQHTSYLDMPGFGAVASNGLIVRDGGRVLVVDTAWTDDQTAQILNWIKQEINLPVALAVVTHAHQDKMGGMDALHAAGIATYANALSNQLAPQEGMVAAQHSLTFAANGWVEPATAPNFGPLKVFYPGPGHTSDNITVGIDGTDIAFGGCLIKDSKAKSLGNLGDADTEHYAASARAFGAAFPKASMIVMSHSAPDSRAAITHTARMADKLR
T4 sequence (C7C422 29-270 T94A): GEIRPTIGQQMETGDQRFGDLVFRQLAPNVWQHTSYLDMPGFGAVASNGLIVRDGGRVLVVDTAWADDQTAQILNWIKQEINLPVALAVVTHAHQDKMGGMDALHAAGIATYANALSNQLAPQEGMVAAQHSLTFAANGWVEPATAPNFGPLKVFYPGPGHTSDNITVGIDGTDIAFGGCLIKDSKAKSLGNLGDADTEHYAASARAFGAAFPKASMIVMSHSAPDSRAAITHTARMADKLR
T3 sequence (C7C422 29-270 F46A): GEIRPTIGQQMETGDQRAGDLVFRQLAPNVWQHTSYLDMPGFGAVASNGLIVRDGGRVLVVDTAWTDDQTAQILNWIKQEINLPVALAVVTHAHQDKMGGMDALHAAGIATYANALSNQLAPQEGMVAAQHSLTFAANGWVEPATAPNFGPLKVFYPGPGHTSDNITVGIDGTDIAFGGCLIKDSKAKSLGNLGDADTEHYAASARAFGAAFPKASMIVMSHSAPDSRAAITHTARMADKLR
T5 sequence (C7C422 29-270 limits assumed): as the sequence (C7C422 29-270, looked up) above
T2 sequence (C7C422 29-270 L65A): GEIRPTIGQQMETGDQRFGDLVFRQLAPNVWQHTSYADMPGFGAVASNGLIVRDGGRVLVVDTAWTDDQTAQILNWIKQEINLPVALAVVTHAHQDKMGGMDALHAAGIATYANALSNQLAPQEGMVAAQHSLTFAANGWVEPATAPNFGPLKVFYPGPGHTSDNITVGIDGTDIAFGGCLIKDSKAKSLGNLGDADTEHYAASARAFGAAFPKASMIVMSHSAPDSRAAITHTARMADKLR

## O=C(/C=C/c1ccc(O)cc1)c1ccc(O)cc1O [6'-Deoxychalcone]
NDM-1 [1]
  IC50: 163 µM

## COc1cc(O)cc2c1C(=O)C[C@@H](c1ccccc1)O2 [Alpinetin]
NDM-1 [1]
  IC50: 122 µM

## C[N+](C)(C)CC(=O)O [Betaine]
NDM-1 [1]; [17]
  IC50: 355 µM

## O=C(O)/C=C/c1ccccc1 [Cinnamic Acid]
NDM-1 [1]
  IC50: 225 µM

## C[C@H](CS)C(=O)N1CCC[C@@H]1C(=O)O [D-captopril]
NDM-1 [2]
  IC50: […]
[3]
  effect on bacteria carrying carbapenemases: no effect

## C[C@H](CS)C(=O)N1CCC[C@H]1C(=O)O [L-captopril]
NDM-1 [2]
  IC50: […]
[3]
  effect on bacteria carrying carbapenemases: no effect

## CCCCC/C=C\C/C=C\CCCCCCCC(=O)O [Linolate]
NDM-1 [1]; [17]
  IC50: 218 µM

## O=C1C[C@@H](c2ccc(O[C@@H]3O[C@H](CO)[C@@H](O)[C@H](O)[C@H]3O)cc2)Oc2cc(O)ccc21 [Liquiritin]
NDM-1 [1]
  IC50: 130 µM

## C[C@@H](O)[C@H]1C(=O)N2C(C(=O)O)=C(S[C@@H]3CN[C@H](C(=O)N(C)C)C3)[C@H](C)[C@H]12 [Meropenem, meropenem, reference compound]
[4]; meropenem alone, read-out: MIC of meropenem
  MIC: 16 mg/L
E. coli ZC-YN3 [5]
  inhibitory effect on E. coli (time-kill): weakened

## O=C(O)c1c(F)ccc2c1OB(O)[C@@H]1C[C@H]21 [QPX7728]
[6]
  oral bioavailability: good oral bioavailability

## O=c1c(-c2ccc(O[C@@H]3O[C@H](CO)[C@@H](O)[C@H](O)[C@H]3O)cc2)coc2cc(O)cc(O)c12 [Sophoricoside]
NDM-1 [1]; [17]
  IC50: 152 µM

## CC(C)c1cc2c(c(O)c1O)[C@@]1(C(=O)O)CCCC(C)(C)[C@@H]1CC2 [carnosic acid]
[4]
  MIC: > 32 mg/L
NDM-1 [1]
  IC50: 27.1 µM
NDM-1 [1]; 8 μg/ml carnosic acid
  decrease of protein activity: 48.56%
NDM-1 [1]; 32 μg/ml carnosic acid
  activity of the protein (remaining): 19.85%
E. coli ZC-YN3 [7]
  effect on growth: nor inhibitory effect on the growth of E. coli ZC-YN3
L65A-NDM-1 [8]
  hydrolysis reaction rate (slope of absorbance at 492 nm vs time): 0.02164
F46A-NDM-1 [9]
  hydrolysis reaction rate (slope of absorbance at 492 nm vs time): 0.0225
T94A-NDM-1 [10]
  hydrolysis reaction rate (slope of absorbance at 492 nm vs time): 0.02277
WT-NDM-1 [11]
  hydrolysis reaction rate (slope of absorbance at 492 nm vs time): 0.00742
mice
  oral lethal dose: greater than 7000 mg/kg
[12]
  effect on the activity of mutants: no obvious effect on the activity of mutants
L65A-NDM-1 [13]
  Binding constants K: 0.336 mL/µg
F46A-NDM-1 [14]
  Binding constants K: 0.1272 mL/µg
T94A-NDM-1 [15]
  Binding constants K: 0.3291 mL/µg
WT-NDM-1 [16]
  Binding constants K: 0.4564 mL/µg
